{"source": "patent US20210085640A1", "about": "“ACYLATED CATECHIN POLYPHENOLS AND METHODS OF THEIR USE FOR THE TREATMENT OF CANCER” (Flagship Pioneering Innovations V, Inc., priority 2018, published 2021)", "type_in_all_cases": "cell-based", "key": {"AGS stomach cancer cells": {"tested_on": "AGS stomach cancer cells", "assay": "Cancer cell survival (CellTiter-Glo), AGS", "design": "Cell survival at given concentration: unit not given here", "experimental": "(§1) The cells were prepared as follows. Cells were harvested during logarithmic growth, counted, and adjusted to 4.44×10^4 cells/mL with culture media. 90 μL of suspended cells were added to wells of 96-well plates for a final cell count of 4×10^3 cells/well. The plates were incubated overnight at 37 C with 5% CO2 overnight.\n(§2) The test compounds were assayed as follows. Compound solutions were mixed at 10× final concentrations in cell media: 1 μM-10 mM (fatty acids) or 100 nM-1 mM (all other compounds). […] of solution was added to each well of cells in triplicate for each concentration. Well plates were incubated for 72 h at 37 C with 5% CO2 and then assayed with CellTiter-Glo by adding 50 μL of CTG solution to each well. Cells were lysed by shaking on an orbital shaker for 5 min. Plates were incubated at room temperature for 20 min and then each well's luminescence was measured. The surviving percentage of cells was determined as:\n(§3) Survival %=(LumTest article−LumMedium control)/(LumNone treated−LumMedium control)[…]\n(§4) Cytotoxicity was assessed at nine concentration levels for each compound and the 50% inhibition concentration (IC50) determined for each compound."}, "A549 lung cancer cells": {"tested_on": "A549 lung cancer cells", "assay": "Cancer cell survival (CellTiter-Glo), A549", "settings": "72 h", "experimental": "as §1, §2, §3, §4"}, "[1]": {"tested_on": "Daudi lymphoma cancer cells", "assay": "Cancer cell survival (CellTiter-Glo), Daudi", "settings": "72 h", "experimental": "as §1, §2, §3\nActivity was assessed at nine concentration levels for each compound and the 50% inhibition concentration (IC50) determined for each compound."}, "[2]": {"tested_on": "HCT 116 colorectal cancer cells", "assay": "Cancer cell survival (CellTiter-Glo), HCT 116", "settings": "HCT 116 cells, 72 h", "experimental": "as §1, §2, §3, §4"}, "T24 bladder cancer cells": {"tested_on": "T24 bladder cancer cells", "assay": "Cancer cell survival (CellTiter-Glo), T24", "settings": "72 h", "experimental": "as §1, §2, §3\nEfficacy was assessed at nine concentration levels for each compound and the 50% inhibition concentration (IC50) determined for each compound."}, "MCF7 breast cancer cells": {"tested_on": "MCF7 breast cancer cells", "assay": "Cancer cell survival (CellTiter-Glo), MCF7", "settings": "72 h", "experimental": "as §1, §2, §3, §4"}, "[3]": {"tested_on": "PC-3 prostate cancer cells", "assay": "Cancer cell survival (CellTiter-Glo), PC-3", "settings": "PC-3 cells, 72 h", "experimental": "as §1, §2, §3, §4"}, "A-431 skin cancer cells": {"tested_on": "A-431 skin cancer cells", "assay": "Cancer cell survival (CellTiter-Glo), A-431", "design": "Cell survival at given concentration: unit not given here", "settings": "A-431 cells, 72 h", "experimental": "as §1, §2, §3, §4"}}, "data": [{"smiles": "Cc1c(C)c2c(c(C)c1O)CC[C@@](C)(CCC[C@H](C)CCC[C@H](C)CCCC(C)C)O2", "note": "[alpha-tocopherol]", "values": [{"measurement": "Cell survival at given concentration", "setting": "AGS stomach cancer cells; 101 nM", "value": 1.03}, {"measurement": "Cell survival at given concentration", "setting": "AGS stomach cancer cells; 318 nM", "value": 1.03}, {"measurement": "Cell survival at given concentration", "setting": "AGS stomach cancer cells; 1 μM, Table 10.1", "value": 1.07}, {"measurement": "Cell survival at given concentration", "setting": "AGS stomach cancer cells; 3 μM, Table 10.1", "value": 1.04}, {"measurement": "Cell survival at given concentration", "setting": "AGS stomach cancer cells; 10 μM, Table 10.1", "value": 1.07}, {"measurement": "Cell survival at given concentration", "setting": "AGS stomach cancer cells; 32 μM, Table 10.1", "value": 1.06}, {"measurement": "Cell survival at given concentration", "setting": "AGS stomach cancer cells; 100 μM, Table 10.1", "value": 1.09}, {"measurement": "Cell survival at given concentration", "setting": "AGS stomach cancer cells; 316 μM", "value": 1.06}, {"measurement": "Cell survival at given concentration", "setting": "AGS stomach cancer cells; 1000 μM", "value": 1.06}, {"measurement": "Cell survival at given concentration", "setting": "A549 lung cancer cells; 101 nM", "value": 1.03}, {"measurement": "Cell survival at given concentration", "setting": "A549 lung cancer cells; 318 nM", "value": 1.05}, {"measurement": "Cell survival at given concentration", "setting": "A549 lung cancer cells; 1 μM", "value": 1.06}, {"measurement": "Cell survival at given concentration", "setting": "A549 lung cancer cells; 3 μM", "value": 1.04}, {"measurement": "Cell survival at given concentration", "setting": "A549 lung cancer cells; 10 μM", "value": 1.08}, {"measurement": "Cell survival at given concentration", "setting": "A549 lung cancer cells; 32 μM", "value": 1.09}, {"measurement": "Cell survival at given concentration", "setting": "A549 lung cancer cells; 100 μM", "value": 1.08}, {"measurement": "Cell survival at given concentration", "setting": "A549 lung cancer cells; 316 μM", "value": 1.07}, {"measurement": "Cell survival at given concentration", "setting": "A549 lung cancer cells; 1000 μM", "value": 1.02}, {"measurement": "Cell survival at given concentration", "setting": "[1]; 101 nM", "value": 0.98}, {"measurement": "Cell survival at given concentration", "setting": "[1]; 318 nM", "value": 0.99}, {"measurement": "Cell survival at given concentration", "setting": "[1]; 1 μM", "value": 1.01}, {"measurement": "Cell survival at given concentration", "setting": "[1]; 3 μM", "value": 1.00}, {"measurement": "Cell survival at given concentration", "setting": "[1]; 10 μM", "value": 1.02}, {"measurement": "Cell survival at given concentration", "setting": "[1]; 32 μM", "value": 1.04}, {"measurement": "Cell survival at given concentration", "setting": "[1]; 100 μM", "value": 1.04}, {"measurement": "Cell survival at given concentration", "setting": "[1]; 316 μM", "value": 1.03}, {"measurement": "Cell survival at given concentration", "setting": "[1]; 1000 μM", "value": 1.02}, {"measurement": "Cell survival at given concentration", "setting": "[2]; 101 nM", "value": 0.99}, {"measurement": "Cell survival at given concentration", "setting": "[2]; 318 nM", "value": 0.98}, {"measurement": "Cell survival at given concentration", "setting": "[2]; 1 μM", "value": 1.00}, {"measurement": "Cell survival at given concentration", "setting": "[2]; 3 μM", "value": 1.01}, {"measurement": "Cell survival at given concentration", "setting": "[2]; 10 μM", "value": 1.01}, {"measurement": "Cell survival at given concentration", "setting": "[2]; 32 μM", "value": 1.03}, {"measurement": "Cell survival at given concentration", "setting": "[2]; 100 μM", "value": 1.03}, {"measurement": "Cell survival at given concentration", "setting": "[2]; 316 μM", "value": 0.98}, {"measurement": "Cell survival at given concentration", "setting": "[2]; 1000 μM", "value": 0.97}, {"measurement": "Cell survival at given concentration", "setting": "T24 bladder cancer cells; 101 nM", "value": 1.02}, {"measurement": "Cell survival at given concentration", "setting": "T24 bladder cancer cells; 318 nM", "value": 1.01}, {"measurement": "Cell survival at given concentration", "setting": "T24 bladder cancer cells; 1 μM", "value": 0.96}, {"measurement": "Cell survival at given concentration", "setting": "T24 bladder cancer cells; 3 μM", "value": 1.00}, {"measurement": "Cell survival at given concentration", "setting": "T24 bladder cancer cells; 10 μM", "value": 0.99}, {"measurement": "Cell survival at given concentration", "setting": "T24 bladder cancer cells; 32 μM", "value": 1.06}, {"measurement": "Cell survival at given concentration", "setting": "T24 bladder cancer cells; 100 μM", "value": 0.98}, {"measurement": "Cell survival at given concentration", "setting": "T24 bladder cancer cells; 316 μM", "value": 1.07}, {"measurement": "Cell survival at given concentration", "setting": "T24 bladder cancer cells; 1000 μM", "value": 1.02}, {"measurement": "Cell survival at given concentration", "setting": "MCF7 breast cancer cells; 101 nM", "value": 1.02}, {"measurement": "Cell survival at given concentration", "setting": "MCF7 breast cancer cells; 318 nM", "value": 1.02}, {"measurement": "Cell survival at given concentration", "setting": "MCF7 breast cancer cells; 1 μM", "value": 1.04}, {"measurement": "Cell survival at given concentration", "setting": "MCF7 breast cancer cells; 3 μM", "value": 1.05}, {"measurement": "Cell survival at given concentration", "setting": "MCF7 breast cancer cells; 10 μM", "value": 1.05}, {"measurement": "Cell survival at given concentration", "setting": "MCF7 breast cancer cells; 32 μM", "value": 1.04}, {"measurement": "Cell survival at given concentration", "setting": "MCF7 breast cancer cells; 100 μM", "value": 1.03}, {"measurement": "Cell survival at given concentration", "setting": "MCF7 breast cancer cells; 316 μM", "value": 1.02}, {"measurement": "Cell survival at given concentration", "setting": "MCF7 breast cancer cells; 1000 μM", "value": 1.01}, {"measurement": "Cell survival at given concentration", "setting": "[3]; 101 nM", "value": 1.01}, {"measurement": "Cell survival at given concentration", "setting": "[3]; 318 nM", "value": 0.99}, {"measurement": "Cell survival at given concentration", "setting": "[3]; 1 μM", "value": 1.04}, {"measurement": "Cell survival at given concentration", "setting": "[3]; 3 μM", "value": 1.00}, {"measurement": "Cell survival at given concentration", "setting": "[3]; 10 μM", "value": 1.03}, {"measurement": "Cell survival at given concentration", "setting": "[3]; 32 μM", "value": 1.00}, {"measurement": "Cell survival at given concentration", "setting": "[3]; 100 μM", "value": 0.99}, {"measurement": "Cell survival at given concentration", "setting": "[3]; 316 μM", "value": 1.02}, {"measurement": "Cell survival at given concentration", "setting": "[3]; 1000 μM", "value": 1.01}, {"measurement": "Cell survival at given concentration", "setting": "A-431 skin cancer cells; 101 nM", "value": 1.00}, {"measurement": "Cell survival at given concentration", "setting": "A-431 skin cancer cells; 318 nM", "value": 0.99}, {"measurement": "Cell survival at given concentration", "setting": "A-431 skin cancer cells; 1 μM", "value": 1.01}, {"measurement": "Cell survival at given concentration", "setting": "A-431 skin cancer cells; 3 μM", "value": 1.01}, {"measurement": "Cell survival at given concentration", "setting": "A-431 skin cancer cells; 10 μM", "value": 1.03}, {"measurement": "Cell survival at given concentration", "setting": "A-431 skin cancer cells; 32 μM", "value": 1.01}, {"measurement": "Cell survival at given concentration", "setting": "A-431 skin cancer cells; 100 μM", "value": 1.02}, {"measurement": "Cell survival at given concentration", "setting": "A-431 skin cancer cells; 316 μM", "value": 1.01}, {"measurement": "Cell survival at given concentration", "setting": "A-431 skin cancer cells; 1000 μM", "value": 1.04}]}]}
